Results on 7 compounds are retold here after US7799821B2, “Therapeutic compounds” (Allergan, Inc., priority 2004, dated 2010).

Common to all, as to format: cell-based
For one assay, the target named is T1, hEP1 (Homo sapiens, UniProt P34995).
T1 construct: expressed in transfected cells; host or cells: HEK-293(EBNA)
T1 sequence (P34995 1-402): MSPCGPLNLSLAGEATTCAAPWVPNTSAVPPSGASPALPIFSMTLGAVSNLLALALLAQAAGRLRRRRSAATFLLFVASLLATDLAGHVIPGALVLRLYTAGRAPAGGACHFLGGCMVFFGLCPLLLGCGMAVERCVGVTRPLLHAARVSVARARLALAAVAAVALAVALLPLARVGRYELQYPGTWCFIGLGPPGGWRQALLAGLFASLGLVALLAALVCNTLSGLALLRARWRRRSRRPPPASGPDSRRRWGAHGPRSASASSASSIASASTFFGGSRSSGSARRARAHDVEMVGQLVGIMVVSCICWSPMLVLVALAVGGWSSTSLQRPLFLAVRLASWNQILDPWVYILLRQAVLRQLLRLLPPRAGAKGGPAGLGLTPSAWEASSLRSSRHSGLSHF
The assay is described as follows: FLIPR calcium signal, hEP1. As to conditions: for EC50: read-out: Other Receptors EC50 hEP1. The method, then:
(§1) HEK-293(EBNA) cells, stably expressing one type or subtype of recombinant human prostaglandin receptors (prostaglandin receptors expressed: hDP/Gqs5; hEP1; hEP2/Gqs5; hEP3A/Gqi5; hEP4/Gqs5; hFP; hIP; hTP), were cultured in 100 mm culture dishes in high-glucose DMEM medium containing 10% fetal bovine serum, 2 mM 1-glutamine, 250 μg/ml geneticin (G418) and 200 μg/ml hygromycin B as selection markers, and 100 units/ml penicillin G, 100 μg/ml streptomycin and 0.25 μg/ml amphotericin B. • (b) Calcium Signal Studies on the FLIPR™
(§2) Cells were seeded at a density of 5×10^4 cells per well in Biocoat® Poly-D-lysine-coated black-wall, clear-bottom 96-well plates (Becton-Dickinson) and allowed to attach overnight in an incubator at 37° C. Cells were then washed two times with HBSS-HEPES buffer (Hanks Balanced Salt Solution without bicarbonate and phenol red, 20 mM HEPES, pH 7.4) using a Denley Cellwash plate washer (Labsystems). After 45 minutes of dye-loading in the dark, using the calcium-sensitive dye Fluo-4 AM at a final concentration of 2 μM, plates were washed four times with HBSS-HEPES buffer to remove excess dye leaving 100 μl in each well. Plates were re-equilibrated to 37° C. for a few minutes.
(§3) Cells were excited with an Argon laser at 488 nm, and emission was measured through a 510-570 nm bandwidth emission filter (FLIPR™, Molecular Devices, Sunnyvale, Calif.). Drug solution was added in a 50 μl volume to each well to give the desired final concentration. The peak increase in fluorescence intensity was recorded for each well. On each plate, four wells each served as negative (HBSS-HEPES buffer) and positive controls (standard agonists: BW245C (hDP); PGE2 (hEP1; hEP2/Gqs5; hEP3A/Gqi5; hEP4/Gqs5); PGF2α (hFP); carbacyclin (hIP); U-46619 (hTP), depending on receptor). The peak fluorescence change in each drug-containing well was then expressed relative to the controls.
(§4) Compounds were tested in a high-throughput (HTS) or concentration-response (CoRe) format. In the HTS format, forty-four compounds per plate were examined in duplicates at a concentration of 10^−5 M. To generate concentration-response curves, four compounds per plate were tested in duplicates in a concentration range between 10^−5 and 10^−11 M. The duplicate values were averaged. In either, HTS or CoRe format each compound was tested on at least 3 separate plates using cells from different passages to give an n≧3.

The target of the next assay is T2, hIP (Homo sapiens, UniProt P43119).
T2 construct: expressed in transfected cells; host or cells: HEK-293(EBNA)
T2 sequence (P43119 whole entry): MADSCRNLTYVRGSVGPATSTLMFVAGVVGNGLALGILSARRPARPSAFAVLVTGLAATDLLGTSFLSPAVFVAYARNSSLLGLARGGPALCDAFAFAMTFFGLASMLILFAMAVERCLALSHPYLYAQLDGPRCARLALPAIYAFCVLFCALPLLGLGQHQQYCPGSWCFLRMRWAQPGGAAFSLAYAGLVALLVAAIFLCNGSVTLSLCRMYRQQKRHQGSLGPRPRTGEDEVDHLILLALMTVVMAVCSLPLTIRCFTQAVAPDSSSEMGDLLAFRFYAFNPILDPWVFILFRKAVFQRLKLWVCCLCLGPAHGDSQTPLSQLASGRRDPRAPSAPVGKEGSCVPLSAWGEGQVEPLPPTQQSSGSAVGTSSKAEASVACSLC
The assay is described as follows: FLIPR calcium signal, hIP. To be noted: for EC50: read-out: Other Receptors EC50 hIP. The method, then:
as §1, §2, §3, §4

The target of the next assay is T3, hFP (Homo sapiens, UniProt P43088).
T3 construct: expressed in transfected cells; host or cells: HEK-293(EBNA)
T3 sequence (P43088 whole entry): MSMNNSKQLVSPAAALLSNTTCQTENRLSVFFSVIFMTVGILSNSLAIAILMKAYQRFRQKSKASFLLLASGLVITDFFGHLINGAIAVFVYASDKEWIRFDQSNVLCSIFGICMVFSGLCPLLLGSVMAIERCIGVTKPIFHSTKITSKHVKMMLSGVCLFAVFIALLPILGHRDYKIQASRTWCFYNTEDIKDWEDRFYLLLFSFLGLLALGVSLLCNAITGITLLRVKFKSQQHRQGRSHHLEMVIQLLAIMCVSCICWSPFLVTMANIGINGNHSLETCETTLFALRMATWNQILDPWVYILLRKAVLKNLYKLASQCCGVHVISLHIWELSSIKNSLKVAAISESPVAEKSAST
The assay is described as follows: FLIPR calcium signal, hFP. To be noted: Table 3, third part. The method, then: as §1, §2, §3
Compounds were tested in a high-throughput (HTS) or concentration-response (CoRe) format. […]

Another assay addresses T4, hTP (Homo sapiens, UniProt P21731).
T4 construct: expressed in transfected cells; host or cells: HEK-293(EBNA)
T4 sequence (P21731 1-343): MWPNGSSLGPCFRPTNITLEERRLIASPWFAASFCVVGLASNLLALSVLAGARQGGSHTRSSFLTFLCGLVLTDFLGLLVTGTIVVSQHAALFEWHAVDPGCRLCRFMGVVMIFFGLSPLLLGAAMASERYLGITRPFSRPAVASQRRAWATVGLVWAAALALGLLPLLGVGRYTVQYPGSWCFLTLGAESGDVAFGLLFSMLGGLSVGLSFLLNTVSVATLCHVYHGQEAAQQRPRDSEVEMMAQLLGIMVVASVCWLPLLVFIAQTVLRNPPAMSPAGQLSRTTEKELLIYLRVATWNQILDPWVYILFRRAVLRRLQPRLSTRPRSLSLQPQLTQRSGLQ
The assay is described as follows: FLIPR calcium signal, hTP. The method, boiled down:
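HEK-293(EBNA) cells stably expressing the recombinant human receptor were loaded with 2 μM Fluo-4 AM for 45 min and read on FLIPR at 37° C in HBSS-HEPES pH 7.4. Peak fluorescence rise was expressed relative to buffer and standard agonist controls (BW245C, PGE2 or U-46619 by receptor); compounds were run 10^−5 to 10^−11 M in duplicate, n≧3.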

As to `CCCCCCC(O)c1ccc(N2C(=O)CC[C@@H]2CCCc2ccc(C(=O)O)s2)cc1` (single isomer, unassigned) [drawing 155], the EC50 (usually the concentration at which the effect is half-maximal) on hEP1 was found to be 6.95 µM.
As for `CCCCCCC(O)c1ccc(N2C(=O)CC[C@@H]2CCCc2ccc(C(=O)O)s2)cc1` (single isomer, unassigned) [drawing 184], the concentration giving a half-maximal response (EC50) at hIP is above 10 µM.
As to `CCCCCC(C)c1ccc([C@@H]2[C@@H](C/C=C\CCCC(=O)O)[C@H](C#N)C[C@H]2C)cc1` (some centres unmarked), at hFP, the “Ca2+ Signal-EC50 (nM) FP” value is “not active”. The “Ca2+ Signal-EC50 (nM) EP1” value at hEP1 (Table 3, third part) is listed as “not active”. Also, on hTP (Table 3, third part), the “Ca2+ Signal-EC50 (nM) TP” value is listed as “not active”. For the same compound, the “Ca2+ Signal-EC50 (nM) IP” value on hIP (Table 3, third part) is given as “not active”.
Turning to `CCCCCCC(O)c1ccc(N2C(=O)CC[C@@H]2CCCc2ccc(C(=O)O)s2)cc1` (single isomer, unassigned) [drawing 183], on hEP1, the EC50 is 6.95 µM.
As to `CCCCCCC(O)c1ccc(N2C(=O)CC[C@@H]2CCCc2ccc(C(=O)O)s2)cc1` (single isomer, unassigned) [drawing 156], the EC50 at hIP is above 10 µM.
For `CC(C)(C)c1ccc(N2C(=O)CC[C@@H]2COCc2ccc(C(=O)O)s2)cc1`, the EC50 on hEP1 and on hTP (read-out: Other Receptors EC50 hTP) was above 10 µM throughout.
For `CC(C)(C)c1ccc(N2C(=O)CC[C@@H]2CCCCCCC(=O)O)cc1`, at hEP1, the EC50 is above 10 µM.
